Assay results from ChEMBL document CHEMBL4418487, “Max binders as myc modulators and uses thereof” (2017).
Each block holds one molecule with its values, some of them ahead of it. Active and inactive are the calls of the source. The calls are words filed in the database; no cut-off is given here.

How the values were obtained:
[1] = Cytotoxicity against human P493-6 cells with where Myc is in OFF- condition assessed as reduction in cell viability incubated for 3 days by CellTiter-Glo assay; assay type: cell-based
[2] = biological target: Protein max (Homo sapiens) (UniProt P61244); assay: Binding affinity to Max in human P493-6 cells assessed as effect on Max interactome by measuring perturbation in Atg16l1 level at […] incubated for 30 mins by immunoprecipitation based assay; assay type: cell-based
[3] = Drug level in mouse plasma at 20 uM, po by LC/MS analysis; assay type: ADME, organism-based; conditions: in vivo
[4] = Toxicity in healthy mouse assessed as effect on behavior at 0.731 mg/kg, po dosed daily using cyclodextrin vehicle for 7 days measured on each day; assay type: organism-based; conditions: in vivo, 168 h
[5] = Hepatic toxicity in healthy mouse assessed as induction of liver damage at 0.731 mg/kg, po dosed daily using cyclodextrin vehicle for 7 days by H and E staining histological analysis; assay type: organism-based; conditions: in vivo, 168 h
[6] = Toxicity in healthy mouse assessed as effect on liver at 0.364 mg/kg, po dosed daily using cyclodextrin vehicle for 7 days by H and E staining histological analysis; assay type: organism-based; conditions: in vivo, 168 h
[7] = biological target: Protein max (Homo sapiens) (UniProt P61244); assay: Binding affinity to Max in human P493-6 cells assessed as effect on Max interactome by measuring perturbation in Nacc2 level at […] incubated for 30 mins by immunoprecipitation based assay; assay type: cell-based
[8] = biological target: Protein max (Homo sapiens) (UniProt P61244); assay: Binding affinity to Max in human P493-6 cells assessed as effect on Max interactome by measuring perturbation in Mxd4 level at […] incubated for 30 mins by immunoprecipitation based assay; assay type: cell-based
[9] = Renal toxicity in healthy mouse assessed as induction of kidney damage at 0.731 mg/kg, po dosed daily using cyclodextrin vehicle for 7 days by H and E staining histological analysis; assay type: organism-based; conditions: in vivo, 168 h
Homo sapiens [10] = assay: Antitumor activity against Luc-labeled and MYC-driven human T-ALL 4188 cells xenografted in immune-compromised NSG mouse assessed as reduction in tumor volume at 20 uM, iv measured during 2 to 12 days after tumor implantation; assay type: functional, organism-based
Homo sapiens [11] = assay: Antitumor activity against Luc-labeled and MYC-driven human T-ALL 4188 cells xenografted in immune-compromised NSG mouse assessed as reduction in tumor volume at 10 mg/ml dosed in corn oil every other day during day 2 to 16 after tumor implantation; assay type: functional, organism-based
[12] = biological target: Protein max (Homo sapiens) (UniProt P61244); assay: Binding affinity to Max in human P493-6 cells assessed as decrease in Myc protein levels at 10 uM in presence of 10 uM proteasome inhibitor MG132; assay type: cell-based
[13] = Drug level in mouse plasma at 20 uM, iv by LC/MS analysis; assay type: ADME, organism-based; conditions: in vivo
[14] = biological target: Protein max (Homo sapiens) (UniProt P61244); assay: Induction of Max homodimer stabilization in human P493-6 cells assessed as increase in Max homodimer binding to DNA by electrophoretic mobility shift assay; assay type: cell-based
[15] = Drug level in plasma (unknown origin) at 0.2 to 10 uM by serial dilution-lowest detection limit test; assay type: ADME, cell-free
[16] = biological target: Protein max (Homo sapiens) (UniProt P61244); assay: Binding affinity to Max in human P493-6 cells assessed as effect on Max interactome by measuring perturbation in Myc level at […] incubated for 30 mins by immunoprecipitation based assay; assay type: cell-based
[17] = biological target: Protein max (Homo sapiens) (UniProt P61244); assay: Induction of recombinant human Max homodimer stabilization at 10 uM pre-incubated for 1 hr with protein and measured after 18 hrs
[18] = Toxicity in healthy mouse assessed as effect on body weight at 0.364 mg/kg, po dosed daily using cyclodextrin vehicle for 7 days measured on each day; assay type: organism-based; conditions: in vivo, 168 h
Homo sapiens [19] = assay: Antitumor activity against Luc-labeled and MYC-driven human T-ALL 4188 cells xenografted in immune-compromised NSG mouse assessed as reduction in tumor volume using tumor cells pre-treated with 20 uM compound for 24 hrs; assay type: functional
[20] = Toxicity in healthy mouse assessed as effect on liver at 0.731 mg/kg, po dosed daily using cyclodextrin vehicle for 7 days by H and E staining histological analysis; assay type: organism-based; conditions: in vivo, 168 h
[21] = biological target: Protein max (Homo sapiens) (UniProt P61244); assay: Binding affinity to Max in human P493-6 cells assessed as decrease in Myc protein levels; assay type: cell-based
[22] = biological target: Protein max (Homo sapiens) (UniProt P61244); assay: Binding affinity to Max in human P493-6 cells assessed as effect on Max interactome by measuring perturbation in Yaf2 level at […] incubated for 30 mins by immunoprecipitation based assay; assay type: cell-based
c-Myc/Max (Homo sapiens) = c-Myc/Max (Homo sapiens) (UniProt P01106+P61244); assay: Inhibition of c-Myc/Max heterodimer interaction in human P493-6 cells by electrophoretic mobility shift assay; assay type: cell-based
[23] = Retention time of the compound by LC/MS analysis; assay type: physicochemical
[24] = biological target: Protein max (Homo sapiens) (UniProt P61244); assay: Binding affinity to Max in human P493-6 cells assessed as decrease in Myc transcript levels by qPCR analysis; assay type: cell-based
[25] = biological target: Protein max (Homo sapiens) (UniProt P61244); assay: Binding affinity to Max in human P493-6 cells at […] incubated for 30 mins by immunoprecipitation based assay; assay type: cell-based
[26] = biological target: Myc proto-oncogene protein (Homo sapiens) (UniProt P01106); assay: Binding affinity to c-Myc in human P493-6 cells at […] incubated for 30 mins by immunoprecipitation based assay; assay type: cell-based
[27] = Toxicity in healthy mouse assessed as effect on behavior at 0.364 mg/kg, po dosed daily using cyclodextrin vehicle for 7 days measured on each day; assay type: organism-based; conditions: in vivo, 168 h
[28] = biological target: Protein max (Homo sapiens) (UniProt P61244); assay: Binding affinity to Max in human P493-6 cells assessed as induction of perturbation in transcriptional programs after 45 mins; assay type: cell-based
[29] = Renal toxicity in healthy mouse assessed as induction of kidney damage at 0.364 mg/kg, po dosed daily using cyclodextrin vehicle for 7 days by H and E staining histological analysis; assay type: organism-based; conditions: in vivo, 168 h
[30] = Drug level in mouse plasma at 100 to 200 uM, po dosed using cyclodextrin vehicle by LC/MS analysis; assay type: ADME, organism-based; conditions: in vivo
[31] = biological target: Protein max (Homo sapiens) (UniProt P61244); assay: Binding affinity to Max in human P493-6 cells assessed as effect on Max interactome by measuring perturbation in Rcor1 level at […] incubated for 30 mins by immunoprecipitation based assay; assay type: cell-based
[32] = Toxicity in healthy mouse assessed as effect on body weight at 0.731 mg/kg, po dosed daily using cyclodextrin vehicle for 7 days measured on each day; assay type: organism-based; conditions: in vivo, 168 h
[33] = biological target: Protein max (Homo sapiens) (UniProt P61244); assay: Binding affinity to Max in human P493-6 cells at 5 to 10 uM using AlexaFluor-tagged compound by Western blotting analysis based target engagement assay; assay type: cell-based
[34] = biological target: Protein max (Homo sapiens) (UniProt P61244); assay: Binding affinity to Max in human P493-6 cells using Biotin with streptavidin enrichment by Western blotting analysis based target engagement assay; assay type: cell-based
[35] = biological target: Protein max (Homo sapiens) (UniProt P61244); assay: Binding affinity to Max in human P493-6 cells at 5 to 10 uM using AlexaFluor-tagged compound in presence of 20 uM soluble KI-MS2-008 by Western blotting analysis based target engagement assay; assay type: cell-based
[36] = Cytotoxicity against human P493-6 cells with where Myc is in ON- condition assessed as reduction in cell viability incubated for 3 days by CellTiter-Glo assay; assay type: functional, cell-based
Astrocyte = assay: Cytotoxicity against normal human astrocytes assessed as reduction in cell viability incubated for 4 days by CellTiter-Glo assay; assay type: cell-based; conditions: 96 h
[37] = biological target: Myc proto-oncogene protein (Homo sapiens) (UniProt P01106); assay: Binding affinity to MYC in human P493-6 cells using 2 mg protein by immunoblotting based pull down assay; assay type: cell-based
[38] = biological target: Protein max (Homo sapiens) (UniProt P61244); assay: Binding affinity to Max in human P493-6 cells using 2 mg protein by immunoblotting based pull down assay; assay type: cell-based
Homo sapiens [39] = organism: Homo sapiens; assay: Cytotoxicity against human GBM4 cells assessed as reduction in cell viability incubated for 4 days by CellTiter-Glo assay; assay type: functional, cell-based
ST486 = assay: Cytotoxicity against human ST486 cells assessed as reduction in cell viability incubated for 3 days by CellTiter-Glo assay; assay type: functional, cell-based
CA46 = assay: Cytotoxicity against human CA46 cells assessed as reduction in cell viability incubated for 3 days by CellTiter-Glo assay; assay type: functional, cell-based
[40] = biological target: Protein max (Homo sapiens) (UniProt P61244); assay: Binding affinity to Max in human P493-6 cells using Bio-MS2 by Western blotting analysis based pull down assay; assay type: cell-based
NCI-H1963 = assay: Cytotoxicity against human NCI-H1963 cells assessed as reduction in cell viability incubated for 3 days by CellTiter-Glo assay; assay type: functional, cell-based

Chain of Protein max (Homo sapiens) (P61244 whole entry): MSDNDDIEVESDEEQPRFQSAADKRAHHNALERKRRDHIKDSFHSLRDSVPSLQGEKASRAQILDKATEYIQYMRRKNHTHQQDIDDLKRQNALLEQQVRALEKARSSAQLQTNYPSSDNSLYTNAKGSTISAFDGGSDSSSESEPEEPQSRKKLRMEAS
Chain of Myc proto-oncogene protein (Homo sapiens) (P01106 whole entry): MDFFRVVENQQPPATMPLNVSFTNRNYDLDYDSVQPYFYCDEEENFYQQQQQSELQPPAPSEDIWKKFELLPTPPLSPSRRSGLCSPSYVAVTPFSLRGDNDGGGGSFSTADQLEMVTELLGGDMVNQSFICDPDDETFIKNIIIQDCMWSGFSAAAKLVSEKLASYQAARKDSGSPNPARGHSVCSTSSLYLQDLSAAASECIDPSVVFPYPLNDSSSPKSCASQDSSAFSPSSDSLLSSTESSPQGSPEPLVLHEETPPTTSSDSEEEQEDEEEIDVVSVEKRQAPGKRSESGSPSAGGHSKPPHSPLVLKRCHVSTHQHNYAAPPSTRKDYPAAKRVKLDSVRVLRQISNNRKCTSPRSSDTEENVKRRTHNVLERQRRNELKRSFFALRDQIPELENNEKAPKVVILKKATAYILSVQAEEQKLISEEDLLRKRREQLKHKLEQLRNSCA

Structure (SMILES): O=C1N(CCS(=O)(=O)c2ccccc2)Cc2ccccc2[C@@H]2OC(c3ccc(OCCCO)cc3)=N[C@]12Cc1ccccc1
- IC50 [1]: > 50 µM

Structure (SMILES): C=CCN1Cc2ccccc2[C@@H]2OC(c3ccccc3)=N[C@]2(Cc2ccccc2)C1=O
- IC50 ([1]; Homo sapiens, P493-6, 72 h): > 50 µM

- Activity [2]: Active
- Drug uptake [3]: Not Active
- Activity [7]: Active
- Activity [8]: Active
- Activity [12]: inactive
- Drug uptake [13]: Active
- Activity [14]: Dose-dependent effect
- Drug uptake [15]: Active
- Activity [16]: Active
- Activity [17]: Active
- Activity [21]: Dose-dependent effect
- Activity [22]: Active
- inhibition (c-Myc/Max (Homo sapiens)): inactive
- Retention_time [23]: 9 min
- Activity [24]: Active
- Activity [25]: Active
- Activity [26]: Active
- Activity [28]: Active
- Drug uptake [30]: Active
- Activity [31]: Active
Structure (SMILES): O=C1N(CCS(=O)(=O)c2ccccc2)Cc2ccccc2[C@@H]2OC(c3ccccc3)=N[C@]12Cc1ccccc1
- Activity [4]: Non-Toxic
- Activity [5]: Non-Toxic
- Activity [6]: Non-Toxic
- Activity [9]: Non-Toxic
- Activity (Homo sapiens [10]): Active
- Activity (Homo sapiens [11]): Active
- Activity [18]: Non-Toxic
- Activity (Homo sapiens [19]): Active
- Activity [20]: Non-Toxic
- Activity [27]: Non-Toxic
- IC50 ([1]; Homo sapiens, P493-6, 72 h): > 50 µM
- Activity [29]: Non-Toxic
- Activity [32]: Non-Toxic

- Activity [33]: Active
- Activity [34]: Active
- Activity [35]: inactive
Structure (SMILES): CCN(CC(=O)NCCNC(=O)CN1Cc2ccccc2[C@@H]2OC(c3ccccc3)=N[C@]2(Cc2ccccc2)C1=O)C(=O)CCC1(C)N=N1

Structure (SMILES): CCOC(=O)CN1Cc2ccccc2[C@@H]2OC(c3ccccc3)=N[C@]2(Cc2ccccc2)C1=O
- IC50 ([1]; Homo sapiens, P493-6, 72 h): > 50 µM

Structure (SMILES): O=C1N(CCS(=O)(=O)c2ccccc2)Cc2ccccc2[C@@H]2OC(c3ccc(OCCCO)cc3)=N[C@]12Cc1ccccc1 (racemic) [listing 1 of 2 here]
- IC50 [36]: 6.8 to 14.5 µM
- Activity (Astrocyte): Non-Toxic
- IC50 ([1]; Homo sapiens, P493-6, 72 h): 50 to 58.1 µM

Structure (SMILES): O=C(c1ccccc1)N1Cc2ccccc2[C@@H]2OC(c3ccccc3)=N[C@]2(Cc2ccccc2)C1=O
- IC50 ([36]; Homo sapiens, P493-6, 72 h): > 50 µM
- IC50 ([1]; Homo sapiens, P493-6, 72 h): > 50 µM

Structure (SMILES): O=C(O)CN1Cc2ccccc2[C@@H]2OC(c3ccccc3)=N[C@]2(Cc2ccccc2)C1=O
- IC50 ([1]; Homo sapiens, P493-6, 72 h): > 50 µM

- Activity [37]: Active
- Activity [38]: Active
Structure (SMILES): NCCOCCOCCNC(=O)CN1Cc2ccccc2[C@@H]2OC(c3ccccc3)=N[C@]2(Cc2ccccc2)C1=O

Structure (SMILES): CC(=O)N1Cc2ccccc2[C@@H]2OC(c3ccccc3)=N[C@]2(Cc2ccccc2)C1=O
- IC50 ([36]; Homo sapiens, P493-6, 72 h): 19.3 µM
- IC50 ([1]; Homo sapiens, P493-6, 72 h): > 50 µM

- Activity [40]: Active
Structure (SMILES): O=C1N(CCS(=O)(=O)c2ccccc2)Cc2ccccc2[C@@H]2OC(c3ccc(OCCCO)cc3)=N[C@]12Cc1ccccc1 (racemic) [listing 2 of 2 here]
- Activity (Homo sapiens [39]): Active
- Activity (ST486): Active
- Activity (CA46): Active
- Activity (NCI-H1963): Active

Structure (SMILES): O=C1NCc2ccccc2[C@@H]2OC(c3ccccc3)=N[C@]12Cc1ccccc1
- IC50 ([1]; Homo sapiens, P493-6, 72 h): > 50 µM

Structure (SMILES): O=C1N(CCS(=O)(=O)c2ccccc2)Cc2cc(Cl)ccc2[C@@H]2OC(c3ccccc3)=N[C@]12Cc1ccccc1
- IC50 ([36]; Homo sapiens, P493-6, 72 h): 25.8 µM
- IC50 ([1]; Homo sapiens, P493-6, 72 h): > 50 µM
